As usually defined, the pIC50 is the negative decadic logarithm of the IC50, by convention in mol/L.

pIC50: −log10 of the molar value.

This note sets out measurements from patent publication US20210387996A1, “TRICYCLIC COMPOUNDS FOR THE TREATMENT AND PROPHYLAXIS OF HEPATITIS B VIRUS DISEASE” (priority 2018, published 2021).

This test relates to HBeAg level in HepDES19 cells (surrogate marker for cccDNA). Description: Engineered HepDES19 primary screen assay (HBeAg as surrogate marker for cccDNA). The note with it: Hepatitis B virus, HepDES19, 120 h, read-out: IC50 (HBeAg level, HepDES19 primary screen assay). In kind it is cell-based, HBV. From the text: The assay was employed to screen for novel cccDNA inhibitors. HepDES19 is a cccDNA-producing cell line. In this cell line, HBeAg in the cell culture supernatant as surrogate marker, as HBeAg production depends on cccDNA level and activity. HepDES19 is an engineered cell line which contains a 1.1 unit length HBV genome, and pgRNA transcription from the transgene is controlled by Tetracycline (Tet). In the absence of Tet, pgRNA transcription will be induced, but HBV e antigen (HBeAg) could not be produced from this pgRNA due to very short leader sequence before the HBeAg start codon and the start codon is disrupted. Only after cccDNA is formed, the missing leader sequence and start codon mutation would be restored from the 3′-terminal redundancy of pgRNA, and then HBeAg could be synthesized. Therefore, HBeAg could be used as a surrogate marker for cccDNA (Zhou, T. et al., Antiviral Res. (2006), 72(2), 116-124; Guo, H. et al., J. Virol. (2007), 81(22), 12472-12484).
HepDES19 cells were seeded at 2×10^6 cells per T150 flask and cultured with the culture medium (Dulbecco's Modified Eagle Medium: Nutrient Mixture F-12 [DMEM-F12, Gibco Cat. 11320-82], 10% Fetal Bovine Serum [FBS, Clontech Cat. 631101], 0.1 mM Non-Essential Amino Acids Solution [NEAA, Gibco Cat. 11140-050], 50 μg/mL Penicillin-Streptomycin [PS, Invitrogen Cat. 15140-163], 500 μg/mL Geneticin [G418, Invitrogen Cat. 10131-027]) containing 3 μg/mL Tet (Sigma, Cat. 87128) for 5 days. Cells were then seeded at 4×10^6 cells per T150 in the same culture medium as described above in the absence of Tet for 8 days. Cells were then harvested and frozen at density of 2×10^6 cells per mL. For compound testing, the frozen cells were thawed and seeded into 96-well plates at a density of 6×10^4 cells per well. At 24 hours after seeding, half log serial dilutions of compounds made with Dimethyl sulfoxide (DMSO, Sigma, Cat. D2650) were further diluted with the same culture medium as described above before they were added to the cells to reach desired final compound concentrations and 1% DMSO concentration. Plates were then incubated at 37° C. for another 5 days before measurement of HBeAg level and cell viability. Intracellular HBeAg level were measured with enzyme-linked immunosorbent assay (ELISA) kit (Shanghai Kehua Diagnostic Medical Products Co., Ltd). Cell viability was assessed using Cell Counting Kit-8 (Donjindo, Cat. CK04-20). IC50 values were derived from the dose-response curve using 4 parameter logistic curve fit method.
The compounds of the present invention were tested for their capacity to inhibit extracellular HBeAg level as described herein.
For the compound `O=c1c2c(oc3c(Cl)cccc13)CN(Cc1ccccc1)CC2` [Example 2, 2-benzyl-9-chloro-3,4-dihydro-1H-chromeno[2,3-c]pyridin-5(2H)-one], the pIC50 is 4.30.

In the case of `COC(=O)c1cccc(CN2CCc3c(oc4c(Cl)cccc4c3=O)C2)c1` [Example 3, methyl 3-((9-chloro-5-oxo-3,4-dihydro-1H-chromeno[2,3-c]pyridin-2(5H)-yl)methyl)benzoate], the pIC50 was 4.51.

Regarding `O=C(c1ccccc1F)N1CCc2c(oc3c(Cl)cccc3c2=O)C1` [Example 4, 9-chloro-2-(2-fluorobenzoyl)-3,4-dihydro-1H-chromeno[2,3-c]pyridin-5-one], the negative-log IC50 (pIC50) was 4.63.

In the case of `COc1ccc(CN2CCc3c(oc4c(Cl)cccc4c3=O)C2=O)cc1` [Example 5, 9-chloro-2-[(4-methoxyphenyl)methyl]-3,4-dihydrochromeno[2,3-c]pyridine-1,5-dione], the pIC50 is 4.59.

Turning to `O=C(c1nccc2ccccc12)N1CCc2c(oc3c(Cl)cccc3c2=O)C1` [Example 6, 9-chloro-2-(isoquinoline-1-carbonyl)-3,4-dihydro-1H-chromeno[2,3-c]pyridin-5(2H)-one], the pIC50 was 4.67.

With `O=C(Nc1ccccc1F)N1CCc2c(oc3c(Cl)cccc3c2=O)C1` [Example 7, 9-chloro-N-(2-fluorophenyl)-5-oxo-3,4-dihydro-1H-chromeno[2,3-c]pyridine-2(5H)-carboxamide], the negative logarithm of the IC50 (pIC50) is 4.40.

With `COC(=O)c1cccc(N2CCc3c(oc4c(Cl)cccc4c3=O)C2=O)c1` [Example 8, methyl 3-(9-chloro-1,5-dioxo-3,4-dihydro-1H-chromeno[2,3-c]pyridin-2(5H)-yl)benzoate], the pIC50 is 6.64.

As for `COC(=O)c1ccc(N2CCc3c(oc4c(Cl)cccc4c3=O)C2=O)cc1` [Example 10, methyl 4-(9-chloro-1,5-dioxo-3,4-dihydro-1H-chromeno[2,3-c]pyridin-2(5H)-yl)benzoate], the negative logarithm of the IC50 (pIC50) was 5.11.

Consider `O=C(O)C1CC(Oc2ccc(N3CCc4c(oc5c(Cl)cccc5c4=O)C3=O)cc2)C1` (stereo not shown) [Example 11, 3-(4-(9-chloro-1,5-dioxo-3,4-dihydro-1H-chromeno[2,3-c]pyridin-2(5H)-yl)phenoxy)cyclobutanecarboxylic Acid], for which the pIC50 is 4.72.

`COC(=O)c1ccc(N2CCc3c(oc4c(Cl)cccc4c3=O)C2)nc1` [Example 13, methyl 6-(9-chloro-5-oxo-3,4-dihydro-1H-chromeno[2,3-c]pyridin-2(5H)-yl)nicotinate]: the pIC50 was 4.38.

As to `O=C1c2oc3c(Cl)cccc3c(=O)c2CCN1c1ccc(Br)cc1` [Example 15, 2-(4-bromophenyl)-9-chloro-3,4-dihydro-2H-chromeno[2,3-c]pyridine-1,5-dione], the pIC50 is 4.98.

On to `O=C1c2oc3c(Cl)cccc3c(=O)c2CCN1c1cccc(OC(F)(F)F)c1` [Example 21, 9-chloro-2-(3-(trifluoromethoxy)phenyl)-3,4-dihydro-2H-chromeno[2,3-c]pyridine-1,5-dione], for which the negative logarithm of the IC50 (pIC50) was 4.32.

As for `COC(=O)c1cc(N2CCc3c(oc4c(Cl)cccc4c3=O)C2=O)ccc1Cl` [Example 24, methyl 2-chloro-5-(9-chloro-1,5-dioxo-1,3,4,5-tetrahydro-2H-chromeno[2,3-c]pyridin-2-yl)benzoate], the pIC50 is 4.34.

In the case of `N#Cc1ccc(N2CCc3c(oc4c(Cl)cccc4c3=O)C2=O)cc1` [Example 30, 4-(9-chloro-1,5-dioxo-1,3,4,5-tetrahydro-2H-chromeno[2,3-c]pyridin-2-yl)benzonitrile], the negative-log IC50 (pIC50) is 4.49.

On to `Cc1ccc(C)c(N2CCc3c(oc4c(Cl)cccc4c3=O)C2=O)c1` [Example 31, 9-chloro-2-(2,5-dimethylphenyl)-3,4-dihydro-2H-chromeno[2,3-c]pyridine-1,5-dione], for which the negative logarithm of the IC50 (pIC50) is 5.15.

In the case of `O=C1c2oc3c(Cl)cccc3c(=O)c2CCN1c1ccc(OC(F)(F)F)cc1Cl` [Example 32, 9-chloro-2-(2-chloro-4-(trifluoromethoxy)phenyl)-3,4-dihydro-2H-chromeno[2,3-c]pyridine-1,5-dione], the pIC50 was 4.97.

In the case of `O=C1c2oc3c(Cl)cccc3c(=O)c2CCN1c1ccc(OC(F)(F)F)cc1` [Example 33, 9-chloro-2-(4-(trifluoromethoxy)phenyl)-3,4-dihydro-2H-chromeno[2,3-c]pyridine-1,5-dione], the pIC50 was 5.74.

`Cc1ccc(N2CCc3c(oc4c(Cl)cccc4c3=O)C2=O)cc1` [Example 34, 9-chloro-2-(p-tolyl)-3,4-dihydro-2H-chromeno[2,3-c]pyridine-1,5-dione]: the pIC50 was 5.22.

Regarding `COC(=O)c1cc(Cl)ccc1N1CCc2c(oc3c(Cl)cccc3c2=O)C1=O` [Example 36, methyl 5-chloro-2-(9-chloro-1,5-dioxo-1,3,4,5-tetrahydro-2H-chromeno[2,3-c]pyridin-2-yl)benzoate], the pIC50 was 4.67.

Take `N#Cc1cc(Cl)ccc1N1CCc2c(oc3c(Cl)cccc3c2=O)C1=O` [Example 37, 5-chloro-2-(9-chloro-1,5-dioxo-1,3,4,5-tetrahydro-2H-chromeno[2,3-c]pyridin-2-yl)benzonitrile]: the negative-log IC50 (pIC50) was 4.91.

As for `Cc1cc(Cl)ccc1N1CCc2c(oc3c(Cl)cccc3c2=O)C1=O` [Example 38, 9-chloro-2-(4-chloro-2-methylphenyl)-3,4-dihydro-2H-chromeno[2,3-c]pyridine-1,5-dione], the pIC50 was 5.67.

On to `O=c1c2c(oc3c(Cl)cccc13)CN(c1ccc(Cl)cc1)CC2` [Example 42, 9-chloro-2-(4-chlorophenyl)-1,2,3,4-tetrahydro-5H-chromeno[2,3-c]pyridin-5-one], for which the negative logarithm of the IC50 (pIC50) is 5.37.

For the compound `O=C1c2oc3c(Cl)cccc3c(=O)c2CCN1c1ncc(Cl)cc1C(F)(F)F` [Example 43, 9-chloro-2-(5-chloro-3-(trifluoromethyl)pyridin-2-yl)-3,4-dihydro-2H-chromeno[2,3-c]pyridine-1,5-dione], the negative logarithm of the IC50 (pIC50) is 4.52.

`O=C1c2oc3c(Cl)cccc3c(=O)c2CCN1c1ccc(Cl)cc1Br` [Example 44, 2-(2-bromo-4-chlorophenyl)-9-chloro-3,4-dihydro-2H-chromeno[2,3-c]pyridine-1,5-dione]: the pIC50 is 5.21.

In the case of `COc1ccc(COc2cc(Cl)cnc2N2CCc3c(oc4c(Cl)cccc4c3=O)C2=O)cc1` [Example 45, 9-chloro-2-(5-chloro-3-((4-methoxybenzyl)oxy)pyridin-2-yl)-3,4-dihydro-2H-chromeno[2,3-c]pyridine-1,5-dione], the negative logarithm of the IC50 (pIC50) was 5.20.

Consider `COCOc1cc(Cl)ccc1N1CCc2c(oc3c(Cl)cccc3c2=O)C1=O` [Example 46, 9-chloro-2-(4-chloro-2-(methoxymethoxy)phenyl)-3,4-dihydro-2H-chromeno[2,3-c]pyridine-1,5-dione], for which the pIC50 is 5.01.

Regarding `O=C(c1cc(Cl)ccc1N1CCc2c(oc3c(Cl)cccc3c2=O)C1=O)N1CCCC1` [Example 47, 9-chloro-2-(4-chloro-2-(pyrrolidine-1-carbonyl)phenyl)-3,4-dihydro-2H-chromeno[2,3-c]pyridine-1,5-dione], the negative logarithm of the IC50 (pIC50) was 5.48.

Regarding `CCOc1cc(Cl)ccc1N1CCc2c(oc3c(Cl)cccc3c2=O)C1=O` [Example 48, 9-chloro-2-(4-chloro-2-ethoxyphenyl)-3,4-dihydro-2H-chromeno[2,3-c]pyridine-1,5-dione], the pIC50 was 5.16.
